COc1ccc(C(=O)O)c(OC)c1OC
solubility (mole fraction)
Details	278.15 K	283.15 K	288.15 K	293.15 K	298.15 K	303.15 K	308.15 K	313.15 K	318.15 K
in 2-butoxyethanol	0.0838	0.0944	0.113	0.127	0.148	0.167	0.185	0.207	0.25
in 2-ethoxyethanol	0.179	0.207	0.238	0.264	0.289	0.318	0.353	0.39	0.431
in 2-methoxyethanol	0.11	0.127	0.154	0.168	0.194	0.213	0.233	0.26	0.283
in ethanol	0.0482	0.0585	0.0733	0.0926	0.116	0.154	0.199	0.27	0.3
in ethyl acetate	0.066	0.0792	0.0992	0.112	0.13	0.174	0.236	0.283	0.301
in ethylene glycol	0.0165	0.0188	0.0227	0.0281	0.036	0.0421	0.0501	0.0635	0.0828
in isopropanol	0.0261	0.0363	0.0496	0.069	0.0801	0.102	0.129	0.158	0.186
in isopropyl acetate	0.0412	0.0495	0.0584	0.0692	0.0778	0.0892	0.0988	0.115	0.137
in n-butyl acetate	0.047	0.0574	0.0673	0.0751	0.0832	0.0991	0.12	0.136	0.168
in n-propanol	0.0312	0.0405	0.0538	0.072	0.082	0.104	0.129	0.161	0.189
in n-propyl acetate	0.0357	0.0454	0.0549	0.0722	0.0829	0.106	0.13	0.162	0.189
in water	0.000331	0.000419	0.000497	0.000553	0.000703	0.000892	0.00109	0.00134	0.00152
